Values joined by “and” are separate entries in the source; they are usually repeats but may differ in a detail not shown here. Identical values can stand only once.
Key:
[1] = system: human pancreatic BxPC3 tumors; test: Orthotopic BxPC3-luc pancreatic tumor model, tumor progression and metastases (TMPN score, bioluminescence); assay type: in vivo, nude mice; design: key to Nodes score / Tumor score / Organ Metastases, Liver score / Organ Metastases, Lung score / Peritoneal Metastases, Diaphragm score / Peritoneal Metastases, Kidney score / Peritoneal Metastases, Adrenals score / Peritoneal Metastases, Intestine score / Peritoneal Metastases, Peritoneum score: TMPN category scores per Table 2 (modified Hennig 2005); key to Total Score: product of T, M, P and N scores per animal; conditions: individual animal, end of experiment
Experimental: The antitumorigenic and antimetastatic capability of the monoclonal antibodies 3F8 and 2H8 against S100P was assessed in an orthotopic tumor model using the human adenopancreatic BxPC3 tumor cell line stably expressing a lentiviral luciferase reporter gene.
BxPC3-luc cell line in exponential growth were harvested with trypsin-EDTA (0.05%/0.02%) (Invitrogen), washed, and examined for viability by trypan blue dye exclusion. Viability was greater than 95%. For primary tumor growth, cells (5×105 in 0.1 mL DMEM high glucose) were injected into the pancreas of 5 nude mice.
Four weeks after cell injection, when tumors became established (300-350 mm3), two animals were killed, tumors were obtained, sliced in 5 mm3 pieces approximately and implanted in 15 new mice. Mice were divided into 3 groups of five animals each one.
Tumor growth and metastasis were followed by bioluminescent imaging, palpation of animals and the examination of endpoint criteria of treated animals (occurrence of ascitic fluid and body weight loss).
Mice were treated either with cromolyn (reference compound that is known to bind to S100P and block its extracellular activity, Arumugam T. et al. 2006. J. Natl. Cancer Inst. 98(24):1806-18), daily (5 mg/Kg body weight by ip injection) or with our antibodies against S100P (3F8 and 2H8), three times per week at 25 mg/Kg by ip injection, starting the treatment 24 hours after tumor implantation. At the end of the experiment (treatment of 30 days) animals were killed, pancreatic tumors were surgically removed, weighted and an staging and scoring system of peritoneal tumors, pancreatic tumors, lymph node metastases, organ metastases, and ascites was developed and recorded according to our TMPN scoring system (Table 2) modified from Hennig R. et al. 2005. Neoplasia, 7(4):417-425 to evaluate tumor progression. Scores from each category were multiplied with each other because patterns in medicine follow multiplicative, rather than additive, rules.
Scores for the primary tumor (T), organ metastases (M), peritoneal metastases (P), and lymph node metastases (N) were multiplied to calculate the total tumor score for each animal. Score P4 value is the sum of the corresponding P0, P1, P2, P3 (P0/1/2/3) plus an additional value of 3 for metastasis presence in the diaphragm, 3 for kidney, 3 for intestine and 3 for adrenal glands.
Bioluminescence imaging was conducted using a cryogenically cooled IVIS 100 imaging system coupled to a data acquisition computer running Living Image Software (Xenogen Corp). Before imaging, mice were placed in an acrylic chamber anesthetized with 2.5% isofluorane-air mixture, and injected intraperitoneally with 15 mg/mL of luciferin potassium salt in PBS at a dose of 150 mg/Kg body weight. At the end of experiment, after the primary tumors were removed, cancer cell dissemination and metastasis were visualized using IVIS imaging, and metastatic colonies were counted and measured (photons/second).
Comparisons between groups were made using the Kruskall-Wallis ANOVA on ranks as a nonparametric test. Differences for which P value was less than 0.05 were considered statistically significant.

[2] = system: HT1080 human fibrosarcoma cell line; test: HT1080 cell survival by MTT method
Experimental: Briefly, HT1080 cells (1×10^4 cells/well) were plated onto 96-well cell culture plates in 50 μl of DMEM medium. Twenty-for hours later, 50 μl of medium with doxorubicin (240 nM or 1 μM) alone or in combination with either S100P or S100P combined with the antibodies (see FIG. 6) were added to each well and were cultured for 72 hours. Then 10 μl of a MTT solution (5 mg/ml PBS) was added to each well and after 4 hours cells were lysed, formazan product was solubilised with 100 μl of extraction buffer (15% SDS in 50% N,N-dimethylformamide pH 4.7) and colorimetric result was measured at 570 nm using a multi-well scanning spectrophotometer 5 hours after solubilization.

[3] = system: BxPC3 pancreatic adenocarcinoma tumor cells; test: Proliferation of BxPC3 tumor cells induced by S100P; assay type: cell-based, human; conditions: S100P 100 nM, 48 hours
Experimental: The proliferation studies on the BxPC3 line were analyzed using the Cell Proliferation ELISA Biotrak™ System kit (GE Healthcare) following the manufacturer's instructions with some modifications. Three thousand cells were seeded in 50 μl of RPMI 1640 culture medium supplemented with 3% FCS in each well. The recombinant S100P protein (100 nM) alone or in combination with the antibodies was added to the cells in the same seeding medium to test the proliferative or inhibitory capacity thereof, respectively. To test the inhibitory effect of the 5D7, 4B12, 3E3, 7F1, 9F3, 6F1, 1A5, 3F8 and 2H8 monoclonal antibodies, a concentration of 500 nM of each antibody was incubated for 2 hours at 37° C. with the recombinant S100P protein before being added to the culture. After 48 hours at 37° C., the proliferation was determined. The two-tailed Mann-Whitney nonparametric test was used to compare the groups. A p value <0.05 was taken for the values to be statistically significant.

O=C(O)c1cc(=O)c2c(OCC(O)COc3cccc4oc(C(=O)O)cc(=O)c34)cccc2o1 [Cromolyn, cromolyn]
Total Score ([1]; T x M x P x N scores multiplied): 2600 and 1000 (2×) and 1300 and 1750 (2×) | Tumor score ([1]; TMPN score (Table 2), 30 days treatment, antibodies 25 mg/Kg ip three times per week, cromolyn 5 mg/Kg ip daily): 4 (4×) and 5 (2×) | Nodes score ([1]; TMPN score): 5 | Organ Metastases, Liver score ([1]; TMPN score): 5 | Organ Metastases, Lung score ([1]; TMPN score): 5 and 0 (5×) | Peritoneal Metastases, Adrenals score ([1]; TMPN score): 3 and 0 (5×) | Peritoneal Metastases, Diaphragm score ([1]; TMPN score): 0 and 3 (5×) | Peritoneal Metastases, Intestine score ([1]; TMPN score): 3 | Peritoneal Metastases, Kidney score ([1]; TMPN score): 3 (4×) and 0 (2×) | Peritoneal Metastases, Peritoneum score ([1]; TMPN score): 4 (4×) and 5 (2×)

COc1cccc2c1C(=O)c1c(O)c3c(c(O)c1C2=O)C[C@@](O)(C(=O)CO)C[C@@H]3O[C@H]1C[C@H](N)[C@H](O)[C@H](C)O1 [Doxorubicin, doxorubicin]
IC50 ([2]; Homo sapiens, HT-1080, 72 h): 240 nM | EC50 ([2]; Homo sapiens, HT-1080, read-out: Toxicity EC50): 240 nM

B1: S100P: human recombinant S100P protein (SEQ ID NO: 2) expressed in E. coli, used as stimulus (protein)
chain: GSHMTELETAMGMIIDVFSRYSGSEGSTQTLTKGELKVLMEKELPGFLQSGKDKDAVDKLLKDLDANGDAQVDFSEFIVFVAAITSACHKYFEKAGLK
modifications: Human
proliferation increase compared to cells not treated with S100P [3]: ~80% | increase of growing respect to the non treated HT1080 cells ([2]; S100P 500 nM, doxorubicin 240 nM, 72 h): approximately 40%
